From EP0992240A1, “THERAPEUTIC AGENT FOR ERECTION FAILURE” (MOCHIDA PHARMACEUTICAL CO., LTD., priority 1997, dated 1998) come the findings set out here.

A short description of data set [1]: Absorption by percutaneous administration in rats. The note with it: hairless rats, Dose 10 mg/kg; for MRT / Tmax: rat. It counts as in vivo. How it is done:
Abdominal skin of hairless rats (eight weeks age, Nippon SLC) was wiped with 70% ethanol, and 0.25 ml/kg of a drug solution (40 mg/ml DMSO) was applied to an area of 8 cm^2 (2 x 4 cm) and the applied area was coated with a film coating agent (Permiaid S, Nitto Medical) and fixed with an adhesive bandage (Elastopore, Nichiban). After application of the drug solution, aliquot of blood was collected from time to time using a heparin-treated syringe from jugular vein and centrifuged to give plasma. Aliquot plasma was extracted with tert-butyl-methyl-ether three times, and the organic phase was evaporated to dryness and dissolved in the initial solvent for HPLC. A certain amount thereof was injected into a HPLC connected to an ultraviolet absorption detector and the drug concentration in the plasma was measured by means of a reversed phase column. Pharmacokinetic parameters were calculated from the measured data by the same manner as in Experiment 3.

The test system of another data set is male wistar rats. In words: Toxicity test, oral administration for four days. The note with it: 100 mg/kg/day orally for four days.
Data set [2] deals with smooth muscle of cavernous body of rabbits. In words: Enhancement of nitroprusside relaxation of isolated cavernous body strips. As to conditions: relaxation by 1 µM nitroprusside compared with solvent. Here is the method: Rabbits were anesthetized by an intravenous injection of 40-50 mg/kg of pentobarbital (Nembutal™ manufactured by Dainippon Pharmaceutical Co., Ltd.), blood was drained out by incision of carotid artery, and penis was taken out and placed in an ice-cooled nutrient solution (Krebs bicarbonate containing 118 mM of NaCl, 4.7 mM of KCl, 1.2 mM of KH2PO4, 1.2 mM of MgSO4.7H2O, 1.5 mM of CaCl2, 25 mM of NaHCO3, 11 mM of glucose and 0.023 mM of EDTA·2Na). After the tissues around the albuginea were incised in a nutrient solution, the albuginea was incised to prepare cavernous body of the penis. The cavernous body was cut and both ends of the strips of about 1 cm length were ligated by nylon yarn. One end was fixed to a supporting rod, transferred into a 20-ml Magnus tube which was filled with the nutrient solution, passed with a mixed gas of 95% oxygen and 5% carbon dioxide and kept at 37 °C while another end of the strip was connected to an isometric transducer (TB-611T; NIHON KOHDEN CORP.) placed on the upper area and a stress load of about 2 g was applied. After stabilization of 60 minutes or longer, strips were contracted with 10 µM of phenylephrine in the presence of 5 µM of guanetidine and 1 µM of atropine and, after stabilization, 1 µM or 100 µM of nitroprusside was added whereby relaxation by nitroprusside was ascertained. […] Rate of relaxation by 1 µM of nitroprusside after addition of the sample was compared with that after addition of the solvent and the increasing rate was calculated. […]

The next data set has as its target T1, PDE type V (Canis lupus familiaris, UniProt O77746).
T1 construct: By elution with a sodium chloride gradient (0 - 0.4 M), PDE types V and III were separated from the other isozymes; from tissue; host or cells: canine aorta
As to the kind of experiment: PDE inhibiting activity, type V. It counts as biochemical, dog. The note with it: PDE purified from canine aorta, 1 µM substrate cGMP or cAMP.

Data set [3] is described as follows: Absorption upon intranasal administration to rats. It counts as in vivo, Male wistar rats. The note with it: for MRT as compared with oral administration / Tmax as compared with oral administration / bioavailability: intranasal administration; for MAT / MRT / Tmax: intranasal; for bioavailability / MRT / Tmax: male, Wistar, rat, inhaled or intranasal. The source says:
Male wistar rats (eight weeks age) were anesthetized by intraperitoneal injection of 1 g/kg of urethane. Neck was incised to expose a trachea and polyethylene tube (SP 120; Natsume Seisakusho) was inserted into the trachea. Then a part of esophagus was opened by cutting and a polyethylene tube of the same diameter was inserted to the direction of choana and the end was tightly sealed with absorbent cotton and adhesive. In order to prevent a leakage of drug solution from nasopalatine canal, said canal of upper chin opening to mouth was closed by synthetic adhesive. The drug was dissolved in a 0.1% tartaric acid solution and the drug of 500 µl/kg was administered by a micropipette from outer nasal cavity followed by closing both outer nasal cavities immediately. As a control, the rat to which the drug was intravenously injected was prepared. After the injection; aliquot of blood was collected from time to time from jugular vein using a heparin-treated syringe and centrifuged to give plasma. Certain amount of the resulting plasma was collected, extracted with tert-butyl-methyl-ether three times, and the organic phase was evaporated to dryness and dissolved in the initial solvent for HPLC. A certain amount thereof was injected into an HPLC connected to an ultraviolet absorption detector and the drug concentration in the plasma was measured by reversed phase column. Time for arriving the maximum blood concentration (Tmax), mean residence time (MRT) and mean absorption time (MAT) were calculated from the measured value.

For another data set, the system named is PDE type I. As to the kind of experiment: PDE inhibiting activity, type I. It counts as biochemical, dog. As to conditions: PDE purified from canine aorta; 1 µM substrate cGMP or cAMP; read-out: Inhibition Activity IC50 (µM) Type I. Here is the method: On the basis of the method of Lugnier et al. (Biochem. Pharmacol., 35, 1743-1751, 1986), PDE was purified from the aorta in a dog. The canine aorta was minced and homogenized with a Waring Blender and a glass homogenizer in six volumes of a Tris-HCl buffer solution (pH 7.5, 20 mM) containing 2 mM magnesium acetate, 5 mM ethylenediaminetetraacetic acid (EDTA), 100 µg/mL of phenylmethylsulforyl fluoride and 15 mM 2-mercaptoethanol (2-ME), and centrifuged at 1200 x g for 30 min. The supernatant was separated and salted out with ammonium sulfate which was added to 45% saturation. The resulting precipitated fraction was resuspended in a Tris-HCl buffer solution (pH 7.5, 20 mM) containing 2 mM magnesium acetate and 1 mM 2-ME, dialyzed overnight and applied to a DEAE-trisacryl column (DEAE […] M:IBF). By elution with a sodium chloride gradient (0 - 0.4 M), PDE types V and III were separated from the other isozymes. The supernatant fraction of 45% saturated ammonium sulfate was further mixed with ammonium sulfate to 65% saturation and salted out. The resulting precipitated fraction was similarly applied to the DEAE-trisacryl column and eluted by a sodium chloride gradient (0 - 0.4 M) so as to separate PDE type I.
The thus obtained PDE types V, III and I were measured for their activity in accordance with the method of Thompson et al. (Adv. Cyclic Nucleotide Res., 10, 69-72, 1979) and the method of Wells et al. (Biochim. Biophys. Acta, 384, 430-443, 1975). Specifically, a purified PDE sample was added to 50 mM Tris-HCl buffer solution (pH 7.5) containing 1 µM of substrate cGMP or cAMP (containing tritium-labelled cGMP or cAMP), 1 mM EGTA and 2 mM magnesium acetate. For PDE activity measurement, enzymatically produced 5' GMP or 5' AMP was further hydrolyzed into guanosine or adenosine with snake venom and separated from the substrate by means of an ion-exchange resin (Dowex 1-X2), followed by measuring with a scintillation counter. The activity of each test compound was determined as a percentage of the PDE activity measured when it was added as a dimethyl sulfoxide solution (DMSO) and its IC50 (50% inhibition concentration) was calculated by the probit method. The final concentration of DMSO was adjusted to be no more than 2% in consideration of the effect on PDE activity.

[4] abbreviates: read-out: Inhibition Activity IC50 (µM) Type V.

Like-named read-outs stand apart in the source and are kept apart here.

Description for PDE type V: The canine aorta was minced and homogenized with a Waring Blender and a glass homogenizer in six volumes of a Tris-HCl buffer solution (pH 7.5, 20 mM) containing 2 mM magnesium acetate, 5 mM ethylenediaminetetraacetic acid (EDTA), 100 µg/mL of phenylmethylsulforyl fluoride and 15 mM 2-mercaptoethanol (2-ME), and centrifuged at 1200 x g for 30 min. […] By elution with a sodium chloride gradient (0 - 0.4 M), PDE types V and III were separated from the other isozymes. […] The resulting precipitated fraction was similarly applied to the DEAE-trisacryl column and eluted by a sodium chloride gradient (0 - 0.4 M) so as to separate PDE type I.
Specifically, a purified PDE sample was added to 50 mM Tris-HCl buffer solution (pH 7.5) containing 1 µM of substrate cGMP or cAMP (containing tritium-labelled cGMP or cAMP), 1 mM EGTA and 2 mM magnesium acetate. For PDE activity measurement, enzymatically produced 5' GMP or 5' AMP was further hydrolyzed into guanosine or adenosine with snake venom and separated from the substrate by means of an ion-exchange resin (Dowex 1-X2), followed by measuring with a scintillation counter. […] The final concentration of DMSO was adjusted to be no more than 2% in consideration of the effect on PDE activity.

What is called MRT is the average time that molecules of a dose stay in the body. Usually Tmax stands for the time from dosing to the highest level. As a reminder, the IC50 is the concentration that inhibits the measured activity by half. What is called bioavailability is dose-corrected exposure relative to a reference, in per cent. A lower bioavailability goes with poor availability. On to `CS(=O)(=O)O.O=c1c(Cc2cccnc2)cn2c3cc(Br)ccc3c3cc(OCCCO)cc1c32` [Example 52, 9-bromo-2-(3-hydroxypropyloxy)-5-(3-pyridylmethyl)-4H-pyrido[3,2,1-jk]carbazol-4-one methanesulfonate], for which the entries for the “MAT” value in data set [1] and in data set [3] (Dose 0.3 mg/kg) were 7.9 h and 1 to 2 h, respectively. Also, the mean residence time MRT is 8.5 h in data set [1] (plasma, topical) and 2 to 3 h in data set [3] (plasma, Dose 0.3 mg/kg). In addition, the Tmax in data set [1] (plasma, topical) was 1 h; in data set [3] (plasma, Dose 0.3 mg/kg), 0.2 to 0.5 h. Moreover, the “abnormal change in body weight and general symptoms” value in the data set with male wistar rats was “no abnormal change”. For the same compound, the dead case result in the data set on male wistar rats (until the next morning of the completion of the administration) was “no dead case”. The “Enhancing Rate of Relaxation (%)” value was 90.8% in data set [2] (Final Added Amount 100 nM) and 190.9% in data set [2] (Final Added Amount 1000 nM). At PDE type V (setting [4]), the IC50 was 0.0057 µM. Also, the “MRT as compared with oral administration” value in data set [3] is given as “same”. Further, in data set [3], the “Tmax as compared with oral administration” value is listed as “same or shortened”. Also, in data set [3] (plasma), the bioavailability is about 100%.
Take `CCCc1nn(C)c2c(=O)[nH]c(-c3cc(S(=O)(=O)N4CCN(C)CC4)ccc3OCC)nc12.O=C(O)CC(O)(CC(=O)O)C(=O)O` [sildenafil, 5-[2-ethoxy-5-(4-methylpiperazin-1-ylsulfonyl)phenyl]-1-methyl-3-propyl-6,7-dihydro-1H-pyrazolo[4,3-d]pyrimidin-7-one-citrate, reference compound]: the “MAT” value was 14.3 h in data set [1] and 1 to 2 h in data set [3] (Dose 1.0 mg/kg). Further, the mean residence time (MRT) in data set [1] (in vivo) is 14.7 h; in data set [3] (in vivo, Dose 1.0 mg/kg), 2 to 3 h. The time to peak (Tmax) in data set [1] (in vivo) was 1 h; in data set [3] (in vivo, Dose 1.0 mg/kg), 0.2 to 0.5 h. In data set [2] (Final Added Amount 1000 nM), the “Enhancing Rate of Relaxation (%)” value is 189.1%. Moreover, the half-inhibitory concentration (IC50) on PDE type V (Inhibition Activity IC50 (µM) Type V) worked out at 0.0018 µM; in the data set with PDE type I, 0.46 µM. Further, the “MRT as compared with oral administration” value in data set [3] was “same”. In addition, the “Tmax as compared with oral administration” value in data set [3] was “same or shortened”. Moreover, in data set [3] (in vivo), the bioavailability was about 100%.
With `O=c1c(Cc2cccnc2)cn2c3ccccc3c3cc(O)cc1c32` [Example 41, 2-hydroxy-5-(3-pyridylmethyl)-4H-pyrido[3,2,1-jk]carbazol-4-one], the half-maximal inhibitory concentration (IC50) on PDE type V (setting [4]) was determined as 0.36 µM; with PDE type I, 48 µM.
